Molecular target: human lung tryptase
Test: β-Tryptase In-Vitro Enzyme Assay
Format: biochemical
Settings: human lung tryptase 1 nM, substrate H-D-HHT-Ala-Arg-pNa 500 μM, pH 7.4, room temperature
Experimental: The β-tryptase assay was conducted with human lung tryptase (Cortex Biochem #CP3033) in an aqueous buffer (10 mM Tris, 10 mM Hepes, 150 mM NaCl, 0.1% PEG 8000, pH 7.4) using the chromogenic substrate H-D-HHT-Ala-Arg-pNa. […] Percent inhibition was calculated by comparing the initial reaction velocity of samples without inhibitor to those with inhibitor. The initial reaction velocities were analyzed using Microsoft Excel.

Compound	IC50 [nM]
NCc1ccc2c(c1)C1(CCN(C(=O)c3ccc(-c4ccc(Cl)cc4Cl)o3)CC1)CO2 [Cpd 136, 1-[5-(2,4-dichloro-phenyl)-furan-2-yl]carbonyl-5′-aminomethyl-spiro[piperidine-4,3′-(2H)-benzo[b]furan]]	25
NCc1ccc2c(c1)C1(CCN(C(=O)c3sc4ccccc4c3Cl)CC1)CO2 [Cpd 166, 1-(3-chloro-benzo[b]thien-2-yl)carbonyl-5′-aminomethyl-spiro[piperidine-4,3′-(2H)-benzo[b]furan]]	71
COc1cccc(-c2ccc(C(=O)N3CCC4(CC3)COc3ccc(CN)cc34)o2)c1 [Cpd 144, 1-[5-(3-methoxy-phenyl)-furan-2-yl]carbonyl-5′-aminomethyl-spiro[piperidine-4,3′-(2H)-benzo[b]furan]]	30
NCc1ccc2c(c1)C1(CCN(C(=O)c3ccc(C#Cc4ccccc4)o3)CC1)CN2S(N)(=O)=O [Cpd 342, 1-(5-phenylethynyl-furan-2-yl)carbonyl-1′-aminosulfonyl-5′-aminomethyl-spiro[piperidine-4,3′-(2H)-indole]]	5.2
Cc1nn(-c2ccc(C(=O)N3CCC4(CC3)COc3ccc(CN)cc34)o2)c(C)c1Cl [Cpd 221, 1-[5-(3,5-dimethyl-4-chloro-pyrazol-1-yl)-furan-2-yl]carbonyl-5′-aminomethyl-spiro[piperidine-4,3′-(2H)-benzo[b]furan]]	550
NCc1ccc2c(c1)C1(CCN(C(=O)c3sc(SCc4ccccc4)c4c3CCC=C4)CC1)CO2 [Cpd 241, 1-(3-benzylthio-7-hydro-6H-benzo[c]thien-1-yl)carbonyl-5′-aminomethyl-spiro[piperidine-4,3′-(2H)-benzo[b]furan]]	5.1
COC(=O)c1ccc(C(=O)N2CCC3(CC2)COc2ccc(CN)cc23)s1 [Cpd 267, 1-(5-methoxycarbonyl-thien-2-yl)carbonyl-5′-aminomethyl-spiro[piperidine-4,3′-(2H)-benzo[b]furan]]	340
CCN1CC2(CCN(C(=O)c3ccc(C#Cc4ccccc4)o3)CC2)c2cc(CN)ccc21 [Cpd 320, 1-(5-phenylethynyl-furan-2-yl)carbonyl-1′-ethyl-5′-aminomethyl-spiro[piperidine-4,3′-(2H)-indole]]	280
NCc1ccc2c(c1)C1(CCN(C(=O)c3cc(-c4ccccc4)cs3)CC1)CO2 [Cpd 288, 1-(4-phenyl-thien-2-yl)carbonyl-5′-aminomethyl-spiro[piperidine-4,3′-(2H)-benzo[b]furan]]	280
NCc1ccc2c(c1)C1(CCN(C(=O)c3cc4cc(C(F)(F)F)ccc4s3)CC1)CO2 [Cpd 200, 1-(5-trifluoromethyl-benzo[b]thien-2-yl)carbonyl-5′-aminomethyl-spiro[piperidine-4,3′-(2H)-benzo[b]furan]]	4100
CCOC(=O)CC(NNC)C(=O)N1CC2(CCN(C(=O)c3ccc(C#Cc4ccccc4)o3)CC2)c2cc(CN)ccc21 (stereo not drawn) [Cpd 332, 1-(5-phenylethynyl-furan-2-yl)carbonyl-1′-[4-ethoxy-2-(methylamino)amino-1,4-dioxo-butyl]-5′-aminomethyl-spiro[piperidine-4,3′-(2H)-indole]]	28
NCc1ccc2c(c1)C1(CCN(C(=O)c3ccc(Sc4ccccc4)o3)CC1)CO2 [Cpd 23, 1-[(5-phenylthio)-furan-2-yl]carbonyl-5′-aminomethyl-spiro[piperidine-4,3′-(2H)-benzo[b]furan]]	90
CC1=C(C(=O)N2CCC3(CC2)COc2ccc(CN)cc23)Cc2ccccc21 [Cpd 192, 1-(1-methyl-3H-inden-2-yl)carbonyl-5′-aminomethyl-spiro[piperidine-4,3′-(2H)-benzo[b]furan]]	150
CSc1ccc(C(=O)N2CCC3(CC2)COc2ccc(CN)cc23)cc1 [Cpd 45, 1-(4-methylthio-phenyl)carbonyl-5′-aminomethyl-spiro[piperidine-4,3′-(2H)-benzo[b]furan]]	220
NCc1ccc2c(c1)C1(CCN(C(=O)c3ccc4ccccc4c3)CC1)CO2 [Cpd 70, 1-naphthalen-2-ylcarbonyl-5′-aminomethyl-spiro[piperidine-4,3′-(2H)-benzo[b]furan]]	150
COc1ccc2[nH]cc(C(=O)N3CCC4(CC3)COc3ccc(CN)cc34)c2c1 [Cpd 238, 1-(5-methoxy-indol-3-yl)carbonyl-5′-aminomethyl-spiro[piperidine-4,3′-(2H)-benzo[b]furan]]	210
CCOc1sc(C(=O)N2CCC3(CC2)COc2ccc(CN)cc23)c2c1C(=O)CCC2 [Cpd 261, 1-(3-ethoxy-4-oxo-5,6,7-trihydro-4H-benzo[c]thien-1-yl)carbonyl-5′-aminomethyl-spiro[piperidine-4,3′-(2H)-benzo[b]furan]]	73
NCc1ccc2c(c1)C1(CCN(C(=O)c3nc(-c4cccs4)no3)CC1)CO2 [Cpd 277, 1-(3-thien-2-yl-[1,2,4]oxadiazol-5-yl)carbonyl-5′-aminomethyl-spiro[piperidine-4,3′-(2H)-benzo[b]furan]]	6

Compound	IC50 [nM]
C=CCc1ccc(OCc2ccc(C(=O)N3CCC4(CC3)COc3ccc(CN)cc34)o2)c(OC)c1 [Cpd 224, 1-[5-(2-methoxy-4-allyl-phenoxymethyl)-furan-2-yl]carbonyl-5′-aminomethyl-spiro[piperidine-4,3′-(2H)-benzo[b]furan]]	280
CSc1sc(C(=O)N2CCC3(CC2)COc2ccc(CN)cc23)c2ccccc12 [Cpd 234, 1-(3-methylthio-benzo[c]thien-1-yl)carbonyl-5′-aminomethyl-spiro[piperidine-4,3′-(2H)-benzo[b]furan]]	9.5
C[N+](C)(C)Cc1ccc2c(c1)C1(CCN(C(=O)c3ccc(C#Cc4ccccc4)o3)CC1)CO2 [Cpd 297, 1-(5-phenylethynyl-furan-2-yl)carbonyl-spiro[piperidine-4,3′-(2H)-benzo[b]furan]-5′-[methyl-(trimethyl)ammonium]]	9600
CCCCSc1sc(C(=O)N2CCC3(CC2)COc2ccc(CN)cc23)c2c1C(=O)CCC2 [Cpd 229, 1-(3-butylthio-4-oxo-5,6,7-trihydro-4H-benzo[c]thien-1-yl)carbonyl-5′-aminomethyl-spiro[piperidine-4,3′-(2H)-benzo[b]furan]]	5.3
Cn1cc(C(=O)N2CCC3(CC2)COc2ccc(CN)cc23)c2ccccc21 [Cpd 237, 1-(1-methyl-indol-3-yl)carbonyl-5′-aminomethyl-spiro[piperidine-4,3′-(2H)-benzo[b]furan]]	270
NCc1ccc2c(c1)C1(CCN(C(=O)c3ccc(C#Cc4ccccc4)o3)CC1)CN2S(=O)(=O)c1ccccc1 [Cpd 341, 1-(5-phenylethynyl-furan-2-yl)carbonyl-1′-phenylsulfonyl-5′-aminomethyl-spiro[piperidine-4,3′-(2H)-indole]]	5.7
Cc1nc(C)c(C(=O)N2CCC3(CC2)COc2ccc(CN)cc23)s1 [Cpd 118, 1-(2,4-dimethyl-thiazol-5-yl)carbonyl-5′-aminomethyl-spiro[piperidine-4,3′-(2H)-benzo[b]furan]]	110
NCc1ccc2c(c1)C1(CCN(C(=O)/C=C/c3ccccc3)CC1)CO2 [Cpd 109, (E)-1-(phenylethenyl)carbonyl-5′-aminomethyl-spiro[piperidine-4,3′-(2H)-benzo[b]furan]]	210
CNC(=N)c1ccc2c(c1)C1(CCN(C(=O)c3ccc(C#Cc4ccccc4)o3)CC1)CO2 [Cpd 310, 1-(5-phenylethynyl-furan-2-yl)carbonyl-5′-[methylamino(imino)methyl]-spiro[piperidine-4,3′-(2H)-benzo[b]furan]]	780
NCc1ccc2c(c1)C1(CCN(C(=O)c3cccc(C(N)=O)c3)CC1)CO2 [Cpd 273, 1-(3-aminocarbonyl-phenyl)carbonyl-5′-aminomethyl-spiro[piperidine-4,3′-(2H)-benzo[b]furan]]	1200
COc1ccccc1/C=C\C(=O)N1CCC2(CC1)COc1ccc(CN)cc12 [Cpd 183, (Z)-1-(2-methoxy-phenylethenyl)carbonyl-5′-aminomethyl-spiro[piperidine-4,3′-(2H)-benzo[b]furan]]	5800
NCc1ccc2c(c1)C1(CCN(C(=O)c3cc4ccccc4o3)CC1)CO2 [Cpd 160, 1-benzo[b]furan-2-ylcarbonyl-5′-aminomethyl-spiro[piperidine-4,3′-(2H)-benzo[b]furan]]	210
CCCOc1sc(C(=O)N2CCC3(CC2)CN(S(=O)(=O)O)c2ccc(CN)cc23)c(C)c1Br [Cpd 346, 1-(3-methyl-4-bromo-5-propoxy-thien-2-yl)carbonyl-1′-hydroxysulfonyl-5′-aminomethyl-spiro[piperidine-4,3′-(2H)-indole]]	40
NCc1ccc2c(c1)C1(CCN(C(=O)c3cccc(C(=O)c4ccccc4)c3)CC1)CO2 [Cpd 4, 1-(3-benzoyl-phenyl)carbonyl-5′-aminomethyl-spiro[piperidine-4,3′-(2H)-benzo[b]furan]]	750
NCc1ccc2c(c1)C1(CCN(C(=O)c3ccc4c(c3)OCO4)CC1)CO2 [Cpd 68, 1-benzodioxol-5-ylcarbonyl-5′-aminomethyl-spiro[piperidine-4,3′-(2H)-benzo[b]furan]]	190
Cc1ccc(C)c(OCc2ccc(C(=O)N3CCC4(CC3)COc3ccc(CN)cc34)o2)c1 [Cpd 174, 1-[5-(2,5-dimethyl-phenoxymethyl)-furan-2-yl]carbonyl-5′-aminomethyl-spiro[piperidine-4,3′-(2H)-benzo[b]furan]]	17
NCc1ccc2c(c1)C1(CCN(C(=O)c3snnc3-c3ccccc3)CC1)CO2 [Cpd 217, 1-(4-phenyl-[1,2,3]thiadiazol-5-yl)carbonyl-5′-aminomethyl-spiro[piperidine-4,3′-(2H)-benzo[b]furan]]	650
NCc1ccc2c(c1)C1(CCN(C(=O)NCc3ccccc3)CC1)CO2 [Cpd 263, 1-benzylaminocarbonyl-5′-aminomethyl-spiro[piperidine-4,3′-(2H)-benzo[b]furan]]	5100
